Experimental findings from PubChem BioAssay (NCI) are described below.

Some test systems named below: OVCAR-3 ovarian; NCI-H522 lung; MDA-MB-231 breast; HOP-62 NSCLC; LOX IMVI melanoma; OVCAR-4 ovarian; NCI-H460 lung; SNB-19 CNS; DU-145 prostate; UACC-62 melanoma.
Assay in all cases: inhibition of tumour cell growth, NCI panel, 48 h

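The compound was tested at five concentrations on cells cultured in 96-well plates, with a 48-hour exposure period. GI50: concentration for 50% inhibition of growth. TGI marks complete inhibition of growth.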 Where a SMILES comes first, the peptide text is derived from it. [ ]: non-standard residue; d: D form. Phe(F5) = N[CH](Cc1c(F)c(F)c(F)c(F)c1F)C(=O)O

For the molecule `C=C(C)[C@@H]1CC[C@]2(C(=O)NCCCN)CC[C@]3(C)[C@H](CC[C@@H]4[C@@]5(C)CC[C@H](O)C(C)(C)[C@@H]5CC[C@]43C)[C@@H]12`, the GI50 is 15.7 µM in the experiment on OVCAR-3 ovarian; 21 µM in the experiment on NCI-H522 lung; 21.1 µM in the experiment on MDA-MB-231 breast; 18.3 µM in the experiment with HOP-62 NSCLC; 25.5 µM in the experiment on LOX IMVI melanoma; 25.6 µM in the experiment on OVCAR-4 ovarian. The GI50 in the experiment on NCI-H460 lung is 14 µM; in the experiment on SNB-19 CNS it was 24.7 µM; with DU-145 prostate it was 17.5 µM; with UACC-62 melanoma, 27.4 µM. Moreover, the TGI in the experiment with OVCAR-3 ovarian was 39.5 µM; with NCI-H522 lung, 68.9 µM; in the experiment with MDA-MB-231 breast, 76.2 µM; in the experiment with HOP-62 NSCLC, 88.4 µM; with LOX IMVI melanoma it was above 100 µM; with OVCAR-4 ovarian, above 100 µM. The TGI is above 100 µM with NCI-H460 lung, 84.5 µM in the experiment with SNB-19 CNS, 37.1 µM in the experiment on DU-145 prostate and 93.2 µM in the experiment with UACC-62 melanoma.
`CCCN1C(=O)/C(=c2\sc3n(c2=O)C2C(NN=3)N(CC)C(=O)N2CC)c2ccccc21` (stereo not given): the GI50 was 0.289 µM with OVCAR-3 ovarian; 0.356 µM in the experiment on NCI-H522 lung; 1.41 µM in the experiment with MDA-MB-231 breast; 0.562 µM with HOP-62 NSCLC; 0.629 µM with LOX IMVI melanoma; 0.933 µM with OVCAR-4 ovarian. Moreover, the GI50 is 0.411 µM in the experiment with NCI-H460 lung, 0.765 µM in the experiment with SNB-19 CNS, 0.421 µM in the experiment with DU-145 prostate and 0.489 µM in the experiment with UACC-62 melanoma. The TGI in the experiment with OVCAR-3 ovarian turned out to be 0.8 µM; in the experiment with NCI-H522 lung it was 4.51 µM; in the experiment with MDA-MB-231 breast it was 12.4 µM; with HOP-62 NSCLC it was 16 µM; with LOX IMVI melanoma, 18.8 µM; with OVCAR-4 ovarian, 12.8 µM. The TGI in the experiment on NCI-H460 lung stood at 12.1 µM; in the experiment on SNB-19 CNS, 23.8 µM; in the experiment with DU-145 prostate, 11 µM; in the experiment with UACC-62 melanoma it was 17.4 µM.
`COc1ccc2c(c1)CCC1C2CCC2(C)C1CCC2(O)CNC(=O)CCCCC1CCSS1` (stereo not given): the GI50 with OVCAR-3 ovarian is 8.65 µM; in the experiment on NCI-H522 lung, 23.7 µM; in the experiment with MDA-MB-231 breast, 2.8 µM; in the experiment with HOP-62 NSCLC, 25 µM; in the experiment on LOX IMVI melanoma, 4.37 µM; in the experiment with OVCAR-4 ovarian, 6.92 µM. The GI50 was 3.25 µM in the experiment with NCI-H460 lung, 18.1 µM in the experiment with SNB-19 CNS, 46.3 µM in the experiment on DU-145 prostate and 13.9 µM with UACC-62 melanoma. For the same molecule, the TGI in the experiment with OVCAR-3 ovarian was 29.2 µM; with NCI-H522 lung, above 100 µM; in the experiment on MDA-MB-231 breast it was 8.3 µM; in the experiment on HOP-62 NSCLC it was above 100 µM; with LOX IMVI melanoma, above 100 µM; in the experiment on OVCAR-4 ovarian it was 45.9 µM. The TGI is above 100 µM with NCI-H460 lung, 51.1 µM with SNB-19 CNS, above 100 µM in the experiment on DU-145 prostate and 49.4 µM in the experiment with UACC-62 melanoma.
As to `NC(=O)[C@H]1CCN(c2ncnc(N)c2F)C[C@@H]1N1CCC[C@@H](Nc2cc(Cl)cc(C(F)(F)F)c2)C1=O`, the GI50 in the experiment on OVCAR-3 ovarian was 28.5 µM; with NCI-H522 lung it was 7.11 µM; in the experiment on MDA-MB-231 breast, 14.3 µM; with HOP-62 NSCLC, 22 µM; with LOX IMVI melanoma, 11.2 µM; in the experiment on OVCAR-4 ovarian, 15.6 µM. The GI50 in the experiment with NCI-H460 lung was 18.4 µM; in the experiment on SNB-19 CNS, 25.8 µM; in the experiment with DU-145 prostate it was 10.8 µM; with UACC-62 melanoma, 13.9 µM. For the same molecule, the TGI in the experiment with OVCAR-3 ovarian is above 100 µM; in the experiment on NCI-H522 lung, 28.4 µM; with MDA-MB-231 breast, 32.6 µM; with HOP-62 NSCLC, above 100 µM; with LOX IMVI melanoma, 27.1 µM; with OVCAR-4 ovarian it was 95.3 µM. Besides, the TGI with NCI-H460 lung is 41.6 µM; with SNB-19 CNS, above 100 µM; in the experiment on DU-145 prostate it was above 100 µM; in the experiment on UACC-62 melanoma, 29.5 µM.
As to `O=C(CCN1CCCC1)Nc1ccc2c(NCc3ccc(F)cc3)c3ccccc3nc2c1`, the GI50 with OVCAR-3 ovarian was 0.488 µM; in the experiment on NCI-H522 lung, 0.394 µM; in the experiment on MDA-MB-231 breast it was 0.454 µM; with HOP-62 NSCLC, 0.611 µM; in the experiment on LOX IMVI melanoma it was 0.38 µM; in the experiment on OVCAR-4 ovarian, 0.45 µM. Further, the GI50 was 0.336 µM in the experiment with NCI-H460 lung, 0.47 µM in the experiment on SNB-19 CNS, 0.368 µM with DU-145 prostate and 0.827 µM in the experiment with UACC-62 melanoma. The TGI was found to be 1.92 µM with OVCAR-3 ovarian; 1.75 µM in the experiment with NCI-H522 lung; 1.91 µM in the experiment with MDA-MB-231 breast; 2.62 µM with HOP-62 NSCLC; 1.48 µM in the experiment with LOX IMVI melanoma; 1.84 µM in the experiment with OVCAR-4 ovarian. Besides, the TGI stood at 1.15 µM in the experiment on NCI-H460 lung, 1.87 µM in the experiment with SNB-19 CNS, 1.54 µM in the experiment with DU-145 prostate and 2.16 µM in the experiment on UACC-62 melanoma.
On to `CCn1c(-c2nonc2N)nc2cncc(C(=O)N3CCNCC3)c21`, for which the GI50 in the experiment on OVCAR-3 ovarian, in the experiment with NCI-H522 lung, in the experiment with MDA-MB-231 breast, with HOP-62 NSCLC, in the experiment with LOX IMVI melanoma and with OVCAR-4 ovarian was above 25 µM throughout. Further, the GI50 in the experiment on NCI-H460 lung, in the experiment on SNB-19 CNS, in the experiment on DU-145 prostate and in the experiment on UACC-62 melanoma was above 25 µM in each case. The TGI in the experiment with OVCAR-3 ovarian, with NCI-H522 lung, in the experiment with MDA-MB-231 breast, in the experiment with HOP-62 NSCLC, in the experiment with LOX IMVI melanoma and in the experiment with OVCAR-4 ovarian was above 25 µM each time. Further, the TGI with NCI-H460 lung, in the experiment on SNB-19 CNS, in the experiment with DU-145 prostate and in the experiment on UACC-62 melanoma was above 25 µM in each case.
Take `CC(C)(O)c1ccc(N2CCN(c3nnc(Cc4ccccc4)c4ccccc34)CC2)nc1`: the GI50 in the experiment with OVCAR-3 ovarian was 10.4 µM; in the experiment on NCI-H522 lung, 6.32 µM; in the experiment with MDA-MB-231 breast, 5.95 µM; with HOP-62 NSCLC it was 13.7 µM; with LOX IMVI melanoma it was 14 µM; in the experiment on OVCAR-4 ovarian, 3.99 µM. The GI50 is 9.83 µM in the experiment on NCI-H460 lung, 15.8 µM in the experiment on SNB-19 CNS, 12.1 µM in the experiment with DU-145 prostate and 8.44 µM in the experiment on UACC-62 melanoma. Also, the TGI in the experiment with OVCAR-3 ovarian stood at 47.5 µM; in the experiment with NCI-H522 lung, 20.7 µM; in the experiment on MDA-MB-231 breast, 32.2 µM; in the experiment with HOP-62 NSCLC, 28.6 µM; in the experiment on LOX IMVI melanoma, 35.5 µM; in the experiment with OVCAR-4 ovarian, 26.3 µM. The TGI came to 34.3 µM with NCI-H460 lung, 67.1 µM with SNB-19 CNS, 34.8 µM in the experiment on DU-145 prostate and 21.9 µM with UACC-62 melanoma.
As for `CC1=C(C(=O)OCc2ccccc2)C(c2ccc3c(c2)OCO3)n2c(nc3ccccc32)N1` (stereo not given), the GI50 with OVCAR-3 ovarian is 0.235 µM; in the experiment on NCI-H522 lung, 0.164 µM; with MDA-MB-231 breast, above 92.6 µM; in the experiment with HOP-62 NSCLC it was 8.01 µM; in the experiment with LOX IMVI melanoma, 0.566 µM; in the experiment on OVCAR-4 ovarian, 13.3 µM. In addition, the GI50 with NCI-H460 lung was 0.369 µM; in the experiment on SNB-19 CNS, 0.54 µM; in the experiment on DU-145 prostate, 0.488 µM; in the experiment with UACC-62 melanoma, 0.513 µM. Moreover, the TGI is 0.998 µM in the experiment on OVCAR-3 ovarian; above 57.6 µM in the experiment on NCI-H522 lung; above 100 µM in the experiment with MDA-MB-231 breast; above 100 µM in the experiment with HOP-62 NSCLC; above 100 µM in the experiment with LOX IMVI melanoma; above 100 µM in the experiment with OVCAR-4 ovarian. Besides, the TGI in the experiment with NCI-H460 lung, in the experiment on SNB-19 CNS, with DU-145 prostate and in the experiment with UACC-62 melanoma was above 100 µM throughout.
On to `CCOC(=O)Cc1c[nH]c(=S)[nH]c1=O`, for which the GI50 in the experiment with OVCAR-3 ovarian, in the experiment on NCI-H522 lung, with MDA-MB-231 breast, in the experiment on HOP-62 NSCLC, in the experiment with LOX IMVI melanoma and in the experiment on OVCAR-4 ovarian was above 100 µM throughout. In addition, the GI50 with NCI-H460 lung, with SNB-19 CNS, with DU-145 prostate and with UACC-62 melanoma was above 100 µM each time. Also, the TGI in the experiment on OVCAR-3 ovarian, in the experiment on NCI-H522 lung, in the experiment with MDA-MB-231 breast, in the experiment with HOP-62 NSCLC, in the experiment with LOX IMVI melanoma and with OVCAR-4 ovarian was above 100 µM each time. For the same molecule, the TGI in the experiment on NCI-H460 lung, in the experiment with SNB-19 CNS, with DU-145 prostate and in the experiment with UACC-62 melanoma was above 100 µM throughout.
With `CC1=CC(=O)c2c(O)cccc2C1=O`, the TGI came out at 2.29 µM in the experiment on OVCAR-3 ovarian; 3.01 µM in the experiment with NCI-H522 lung; 3.64 µM in the experiment with MDA-MB-231 breast; 17.6 µM in the experiment on HOP-62 NSCLC; 3.32 µM with LOX IMVI melanoma; 3.26 µM in the experiment with OVCAR-4 ovarian. Besides, the TGI in the experiment with NCI-H460 lung was above 26.1 µM; in the experiment on SNB-19 CNS it was 25 µM; in the experiment with DU-145 prostate it was 3.02 µM; with UACC-62 melanoma, 3.4 µM.
Turning to `COC(=O)C(CC(C)C)NC(=O)C(Cc1cnc[nH]1)NC(=O)CNC(=O)C(NC(=O)C(C)NC(=O)C(Cc1c[nH]c2ccccc12)NC(=O)C(CCC(=O)O)NC(=O)C(N)Cc1c(F)c(F)c(F)c(F)c1F)C(C)C` (stereo not given) (H-[Phe(F5)]EWAVGHL-OMe; configuration not given here), the GI50 with OVCAR-3 ovarian, in the experiment on HOP-62 NSCLC, in the experiment on OVCAR-4 ovarian, in the experiment with NCI-H460 lung and in the experiment on UACC-62 melanoma was above 100 µM each time. In addition, the TGI in the experiment with OVCAR-3 ovarian was above 100 µM; with NCI-H522 lung, above 12.5 µM; in the experiment with MDA-MB-231 breast, above 12.5 µM; in the experiment with HOP-62 NSCLC, above 100 µM; in the experiment on LOX IMVI melanoma it was above 12.5 µM; in the experiment with OVCAR-4 ovarian it was above 100 µM. For the same molecule, the TGI in the experiment on NCI-H460 lung was above 100 µM; with SNB-19 CNS it was above 100 µM; with DU-145 prostate, above 12.5 µM; with UACC-62 melanoma, above 100 µM.
